According to publication PMC5923123, “In Vitro and In Vivo Efficacy of a Novel and Long-Acting Fungicidal Azole, PC1244, on Aspergillus fumigatus Infection” (Antimicrobial Agents and Chemotherapy, 2018):
≈ marks a conversion by molar mass, not a printed value. Where “and” joins values, the source holds several entries; their conditions need not be identical. Equal entries are not always repeated. Where two headings read alike, the source gives them in different places.

Legend:
A. fumigatus AF293 = assay: EUCAST broth microdilution growth inhibition (OD 530 nm, 384-well); assay type: cell-based; settings: Aspergillus fumigatus, strain AF293 (ITC-susceptible), 48 h
Method: (§1) The antifungal activities of the test compounds against A. fumigatus strains (itraconazole [ITC]-susceptible strains NCPF2010, AF294, and AF293; ITC-resistant strains AF72 and AF91) were calculated from growth curves generated by spectrophotometric analysis and compared to the activities against positive and negative controls.

A. fumigatus AF294 = assay: as above; assay type: cell-based; settings: Aspergillus fumigatus, strain AF294 (ITC-susceptible), 48 h
Method: as §1

A. fumigatus AF72 = assay: as above; assay type: cell-based; settings: Aspergillus fumigatus, strain AF72 (ITC-resistant), 48 h
Method: as §1

A. fumigatus AF91 = assay: as above; assay type: cell-based; settings: Aspergillus fumigatus, strain AF91 (ITC-resistant), 48 h
Method: as §1

A. fumigatus NCPF2010 = assay: as above; assay type: cell-based; settings: Aspergillus fumigatus, strain NCPF2010 (ITC-susceptible), 48 h, range tested 0.002 to 1 μg/ml
Method: as §1

[1] = system: 96 clinically isolated A. fumigatus strains; assay: EUCAST MIC against clinical isolates (visual); assay type: cell-based, Aspergillus fumigatus; settings: 96 clinical isolates, visual
Text: The antifungal activity of PC1244 was further evaluated against 96 clinical isolates (obtained from Saint Louis Hospital, Paris, France [50 isolates], and the North West England Mycology Reference Centre, Manchester, UK [46 isolates]). […] .

[2] = system: BEAS2B cells infected with A. fumigatus; assay: Persistence of action in bronchial epithelial cells (galactomannan in supernatant); assay type: cell-based, Aspergillus fumigatus; settings: for IC50: Aspergillus fumigatus, BEAS-2B, GM readout
Method: In a second system, the persistence of the action of the same three agents on A. fumigatus-infected bronchial epithelial cells was quantified using galactomannan (GM) production in the culture supernatant as an index of fungal growth. BEAS2B cells were infected with A. fumigatus, and the effects of a 24-h washout period (medium change) prior to infection were examined.
The persistence of action of the test agents was evaluated in immortalized bronchial epithelial cells (BEAS2B cells) as previously reported ([28]). […] The plate was incubated for exactly 1 h at 37°C in 5% CO2. After the incubation time had elapsed, all wells on the washout plate were aspirated and growth medium (100 μl/well) was added across the plate. […] The plate was incubated for exactly 1 h at 37°C in 5% CO2, after which A. fumigatus conidia were added across both plates at a final concentration of 1 × 10^3/well. […] This study was conducted in triplicate in three independent experiments.

[3] = system: Aspergillus carbonarius (ATCC 8740); assay: CLSI MIC; assay type: cell-based; settings: ATCC8740
[4] = system: Aspergillus flavus (ATCC 204304); assay: CLSI MIC; assay type: cell-based; settings: ATCC204304
[5] = system: Aspergillus flavus (AFL8, NRRC3357); assay: EUCAST MIC; assay type: cell-based
[6] = system: Aspergillus niger (ATCC 1015); assay: EUCAST MIC; assay type: cell-based; settings: ATCC1015
[7] = system: Aspergillus terreus (AT49, AT7130); assay: EUCAST MIC; assay type: cell-based
[8] = system: Penicillium chrysogenum (ATCC 9480); assay: CLSI MIC; assay type: cell-based; settings: ATCC9480, 1 strain
[9] = system: Penicillium citrinum (ATCC 9849); assay: CLSI MIC; assay type: cell-based; settings: ATCC9849, 1 strain
[10] = system: Trichophyton rubrum (ATCC 10218); assay: CLSI MIC; assay type: cell-based; settings: ATCC10218, 1 strain
[11] = system: Cladosporium argillaceum (ATCC 38013); assay: CLSI MIC; assay type: cell-based; settings: Rhizocladosporium argillaceum, ATCC38013, 1 strain
[12] = system: Candida albicans (20240.047, ATCC 10231); assay: CLSI MIC; assay type: cell-based; settings: ATCC10231
[13] = system: Chaetomium globosum (ATCC 44699); assay: CLSI MIC; assay type: cell-based; settings: ATCC44699, 1 strain
[14] = system: Mucor circinelloides (ATCC 8542); assay: CLSI MIC; assay type: cell-based; settings: ATCC8542, 1 strain
[15] = system: Rhizopus oryzae(ATCC 11145); assay: CLSI MIC; assay type: cell-based; settings: Rhizopus arrhizus, ATCC11145, 1 strain
[16] = system: ergosterol production in A. fumigatus (NCPF2010); assay: A. fumigatus cell-based ergosterol assay; settings: Aspergillus fumigatus, NCPF2010, 24 h, read-out: IC50, inhibition of ergosterol production
Method: CYP51 enzyme-inhibitory activity was also measured in a cell-based assay, as described previously ([28]). In this plate-based ergosterol quantification experiment, oxidation of ergosterol by cholesterol oxidase was determined by observing the conversion of the weakly fluorescent resazurin to the highly fluorescent resorufin and was normalized using crystal violet staining (indicating cell number).
After incubation for 24 h at 35°C, the medium was removed from all wells and replaced with reaction buffer (catalog number A12216; Amplex red cholesterol assay kit; Thermo Fisher) and Amplex red solution. The plates were incubated for 30 min at 37°C with protection from light, after which the fluorescence was quantified using a spectrophotometer. The medium was removed from all wells and replaced with crystal violet solution (1%, vol/vol), and the plates were incubated at room temperature on a shaker for 30 min. The plates were washed three times with phosphate-buffered saline (PBS), and sodium dodecyl sulfate solution (0.1%, vol/vol) was added across the plate to lyse the cells. After incubation at room temperature for 1 h, the absorbance (OD) at 590 nm was measured using a spectrophotometer.

A. fumigatus (NCPF2010) [17] = assay: Fungicidal activity by subculture on agar (CFU-MFC); settings: Aspergillus fumigatus, NCPF2010, 48 h, read-out: CFU-MFC
Method: (§2) After the MIC for each compound was recorded, fungicidal activity was determined as previously described ([35]). Briefly, medium from each well (100 μl/well) was removed after pipetting up and down five times and subcultured onto 4% Sabouraud dextrose agar plates. The plates were incubated (35°C with ambient air) for 48 h, and the numbers of CFU were counted for each compound concentration. The minimum fungicidal concentration (MFC) was determined as the lowest compound concentration yielding 3 colonies or less.

A. fumigatus (NCPF2010) [18] = assay: Fungicidal activity by XTT colorimetric method (XTT-MFC); settings: Aspergillus fumigatus
Method: In addition, the fungicidal effect of each compound was determined using 2,3-bis-(2-methoxy-4-nitro-5-sulfophenyl)-2H-tetrazolium-5-carboxanilide salt (XTT)-based quantitative colorimetric analysis (XTT-MFC).
After the removal of medium for culture-based testing of the number of CFU, the contents of all wells were carefully aspirated and warm PBS (200 μl/well) was added. After gentle agitation, the contents of all wells were aspirated and fresh medium was added (200 μl/well). The plates were incubated (35°C with ambient air) for 24 h. […] The plates were incubated (35°C with ambient air) for 2 h, after which the plates were agitated gently for 2 min. The optical density (OD) of each well at 450 nm and 620 nm was measured using a multiscanner (Clariostar; BMG, Buckinghamshire, UK).

A. fumigatus (NCPF2010) [19] = assay: Broth microdilution MIC (96-well) preceding MFC determination; settings: Aspergillus fumigatus
Method: as §2

In the case of `C[C@@H](c1ncncc1F)[C@](O)(Cn1cncn1)c1ccc(F)cc1F` [Voriconazole, voriconazole], the IC50 (A. fumigatus AF293) is reported as 0.25 µg/mL (≈ 0.716 µM), the IC90 (A. fumigatus AF293) is reported as 0.74 µg/mL (≈ 2.12 µM) and the IC50 (A. fumigatus AF294) is reported as 0.083 µg/mL (≈ 0.238 µM). It also gave an IC90 (A. fumigatus AF294) of 0.27 µg/mL (≈ 0.773 µM), an IC50 (A. fumigatus AF72) of 0.025 µg/mL (≈ 0.0716 µM) and an IC90 (A. fumigatus AF72) of 0.066 µg/mL (≈ 0.189 µM). It also gave an IC50 (A. fumigatus AF91) of 0.14 µg/mL (≈ 0.401 µM), an IC90 (A. fumigatus AF91) of 0.28 µg/mL (≈ 0.802 µM) and an IC50 (A. fumigatus NCPF2010) of 0.15 µg/mL (≈ 0.429 µM). The IC90 (A. fumigatus NCPF2010) was 0.21 µg/mL (≈ 0.601 µM), the “MIC Range” value [1] was 0.06 to 4 µg/mL and the MIC50 ([1]; Aspergillus fumigatus) was 0.5 µg/mL (≈ 1.43 µM). For the same compound, the MIC90 ([1]; Aspergillus fumigatus) was 1 µg/mL (≈ 2.86 µM), the MIC ([1]; Aspergillus fumigatus, read-out: MIC Geometric mean) was 0.42 µg/mL (≈ 1.2 µM) and the MIC ([1]; Aspergillus fumigatus, read-out: MIC Mode) was 0.5 µg/mL (≈ 1.43 µM). The IC50 ([2]; 1 h contact before infection, no washout, read-out: BEAS2B cells IC50 No washout) was 0.054 µg/mL (≈ 0.155 µM), the IC50 ([2]; 1 h contact then 24-h washout before infection, read-out: BEAS2B cells IC50 Washout) was over 1 µg/mL and the “activity after 1-h contact and 24-h washout” value ([2]; BEAS2B cells) was “ineffective”. It also gave an MIC [3] of 0.5 µg/mL (≈ 1.43 µM), an MIC [4] of 2 µg/mL (≈ 5.73 µM) and an MIC [5] of 0.63 µg/mL (≈ 1.8 µM). The MIC [6] was 1 µg/mL (≈ 2.86 µM), the MIC [7] was 1 µg/mL (≈ 2.86 µM) and the MIC [8] was 2 µg/mL (≈ 5.73 µM). It also gave an MIC [9] of over 8 µg/mL, an MIC [10] of 0.063 µg/mL (≈ 0.18 µM) and an MIC [11] of 0.5 µg/mL (≈ 1.43 µM). The MIC [12] was 0.14 µg/mL (≈ 0.401 µM), the MIC [13] was 1 µg/mL (≈ 2.86 µM) and the MIC [14] was over 8 µg/mL. The MIC [15] was over 8 µg/mL, the IC50 [16] was 0.067 µg/mL and 190 nM and the MFC (A. fumigatus (NCPF2010) [17]) was 16 µg/mL (≈ 45.8 µM). The MFC (A. fumigatus (NCPF2010) [18]; NCPF2010, read-out: XTT-MFC) was over 32 µg/mL, the inhibition at 32 µg/mL (A. fumigatus (NCPF2010) [18]; NCPF2010, read-out: maximum inhibition of fungicidal activity) was 69.2% and the MIC (A. fumigatus (NCPF2010) [19]) was 1.67 ± 0.58 µg/mL (≈ 4.78 µM).
